Legend:
KRAS WT = molecular target: T1, KRAS WT (Homo sapiens, UniProt P01116); experiment: HTRF nucleotide exchange assay, KRAS WT; assay type: biochemical; settings: class symbols; for IC50: HTRF nucleotide exchange assay (NEA)
T1 construct: aa1-188 KRAS WT

KRAS G12D = molecular target: T2, KRAS G12D (Homo sapiens, UniProt P01116, G12D); experiment: HTRF nucleotide exchange assay, KRAS G12D; assay type: biochemical; settings: class symbols; for IC50: HTRF nucleotide exchange assay (NEA)
T2 construct: aa1-188 KRAS WT, HRAS WT, NRAS WT, or KRAS containing the G12D

SMILES | KRAS^WT NEA (KRAS WT) | KRAS^G12D NEA (KRAS G12D) | IC50 (KRAS WT) [nM] | IC50 (KRAS G12D) [nM]
CN(C)C(=O)c1cc2n(n1)CCCN(c1nc(OC[C@@]34CCCN3C[C@H](F)C4)nc3cc(-c4cccc5[nH]nc(C#N)c45)c4nn(C)cc4c13)C2 [Example 83, 5-[4-(3-cyano-1H-indazol-4-yl)-2-methyl-7-[[(2R,8S)-2-fluoro-1,2,3,5,6,7-hexahydropyrrolizin-8-yl]methoxy]pyrazolo[4,3-f]quinazolin-9-yl]-N,N-dimethyl-4,6,7,8-tetrahydropyrazolo[1,5-a][1,4]diazepine-2-carboxamide] | D (<49% inhibition at 10 μM) | D (<49% inhibition at 10 μM) | – | –
Cc1cc2[nH]ncc2c(-c2cc3nc(OC[C@@]45CCCN4C[C@H](F)C5)nc(N4CCCn5nc(C(=O)N(C)C)cc5C4)c3c3cn(C)nc23)c1C(F)(F)F [Example 84, 5-[7-[[(2R,8S)-2-fluoro-1,2,3,5,6,7-hexahydropyrrolizin-8-yl]methoxy]-2-methyl-4-[6-methyl-5-(trifluoromethyl)-1H-indazol-4-yl]pyrazolo[4,3-f]quinazolin-9-yl]-N,N-dimethyl-4,6,7,8-tetrahydropyrazolo[1,5-a][1,4]diazepine-2-carboxamide] | – | – | 10 to 100 | ≤ 10
Cn1cc2c(n1)c(-c1cccc3sc(N)c(C#N)c13)cc1nc(OC[C@@]34CCCN3C[C@H](F)C4)nc(N3CC4CCC(C3)N4)c12 [Example 86, 2-amino-4-[9-(3,8-diazabicyclo[3.2.1]octan-3-yl)-7-[[(2R,8S)-2-fluoro-1,2,3,5,6,7-hexahydropyrrolizin-8-yl]methoxy]-2-methyl-pyrazolo[4,3-f]quinazolin-4-yl]benzothiophene-3-carbonitrile] | D (<49% inhibition at 10 μM) | – | – | ≤ 10
CCc1c(F)ccc2cc(O)cc(-c3c(F)c4nc(OC[C@@]56CCCN5C[C@H](F)C6)nc(N5CCCn6nc(C(=O)N(C)C)cc6C5)c4c4cn(C)nc34)c12 [Example 87, 5-[4-(8-ethyl-7-fluoro-3-hydroxy-1-naphthyl)-5-fluoro-2-methyl-7-[[(2R,8S)-2-fluoro-1,2,3,5,6,7-hexahydropyrrolizin-8-yl]methoxy]pyrazolo[4,3-f]quinazolin-9-yl]-N,N-dimethyl-4,6,7,8-tetrahydropyrazolo[1,5-a][1,4]diazepine-2-carboxamide] | – | – | ≤ 10 | ≤ 10
CCc1c(F)ccc2cc(O)cc(-c3c(F)c4nc(OC[C@@]56CCCN5C[C@H](F)C6)nc(N5CCCOCC5)c4c4cn(C)nc34)c12 [Example 88, 5-ethyl-6-fluoro-4-[5-fluoro-2-methyl-9-(1,4-oxazepan-4-yl)-7-[[(2R,8S)-2-fluoro-1,2,3,5,6,7-hexahydropyrrolizin-8-yl]methoxy]pyrazolo[4,3-f]quinazolin-4-yl]naphthalen-2-ol] | – | – | ≤ 10 | ≤ 10
CCc1c(F)ccc2cc(O)cc(-c3cc4nc(OC[C@@]56CCCN5C[C@H](F)C6)nc(N5C6CCC5CN(CCCO)C6)c4c4cn(C)nc34)c12 [Example 89, 5-ethyl-6-fluoro-4-[7-[[(2R,8S)-2-fluoro-1,2,3,5,6,7-hexahydropyrrolizin-8-yl]methoxy]-9-[3-(3-hydroxypropyl)-3,8-diazabicyclo[3.2.1]octan-8-yl]-2-methyl-pyrazolo[4,3-f]quinazolin-4-yl]naphthalen-2-ol] | – | – | 100 to 10000 | ≤ 10
Cn1cc2c(n1)c(-c1ccc(F)c3sc(N)c(C#N)c13)cc1nc(OC[C@@]34CCCN3C[C@H](F)C4)nc(N3C4CCC3CN(CCCO)C4)c12 [Example 90, 2-amino-7-fluoro-4-[7-[[(2R,8S)-2-fluoro-1,2,3,5,6,7-hexahydropyrrolizin-8-yl]methoxy]-9-[3-(3-hydroxypropyl)-3,8-diazabicyclo[3.2.1]octan-8-yl]-2-methyl-pyrazolo[4,3-f]quinazolin-4-yl]benzothiophene-3-carbonitrile] | D (<49% inhibition at 10 μM) | D (<49% inhibition at 10 μM) | – | –
CCc1c(F)ccc2cc(O)cc(-c3cc4nc(OC[C@@]56CCCN5C[C@H](F)C6)nc(N5CC6CCC(C5)N6CC(C)O)c4c4cn(C)nc34)c12 (stereo partly drawn) [Example 91, 5-ethyl-6-fluoro-4-[7-[[(2R,8S)-2-fluoro-1,2,3,5,6,7-hexahydropyrrolizin-8-yl]methoxy]-9-[3-(2-hydroxypropyl)-3,8-diazabicyclo[3.2.1]octan-8-yl]-2-methyl-pyrazolo[4,3-f]quinazolin-4-yl]naphthalen-2-ol] | – | – | 100 to 10000 | ≤ 10
CCc1c(F)ccc2cc(O)cc(-c3c(F)c4nc(OC[C@@]56CCCN5C[C@H](F)C6)nc(N5CCOCC(C)(O)C5)c4c4cn(C)nc34)c12 (stereo partly drawn) [Example 92, 4-[4-(8-ethyl-7-fluoro-3-hydroxy-1-naphthyl)-5-fluoro-2-methyl-7-[[(2R,8S)-2-fluoro-1,2,3,5,6,7-hexahydropyrrolizin-8-yl]methoxy]pyrazolo[4,3-f]quinazolin-9-yl]-6-methyl-1,4-oxazepan-6-ol] | – | – | ≤ 10 | ≤ 10
C#Cc1c(F)ccc2cc(O)cc(-c3c(F)c4nc(OC[C@@]56CCCN5C[C@H](F)C6)nc(N5CCCn6nc(C(=O)N(C)C)cc6C5)c4c4cn(C)nc34)c12 [Example 93, 5-[4-(8-ethynyl-7-fluoro-3-hydroxy-1-naphthyl)-5-fluoro-2-methyl-7-[[(2R,8S)-2-fluoro-1,2,3,5,6,7-hexahydropyrrolizin-8-yl]methoxy]pyrazolo[4,3-f]quinazolin-9-yl]-N,N-dimethyl-4,6,7,8-tetrahydropyrazolo[1,5-a][1,4]diazepine-2-carboxamide] | – | – | ≤ 10 | ≤ 10
CCc1c(F)ccc2cc(O)cc(-c3cc4nc(OC[C@@]56CCCN5C[C@H](F)C6)nc(N5CCCn6nc(CO)cc6C5)c4c4cn(C)nc34)c12 [Example 94, 5-ethyl-6-fluoro-4-[9-[2-(hydroxymethyl)-4,6,7,8-tetrahydropyrazolo[1,5-a][1,4]diazepin-5-yl]-2-methyl-7-[[(2R,8S)-2-fluoro-1,2,3,5,6,7-hexahydropyrrolizin-8-yl]methoxy]pyrazolo[4,3-f]quinazolin-4-yl]naphthalen-2-ol] | – | – | ≤ 10 | ≤ 10
CCc1c(F)ccc2cc(O)cc(-c3c(C)c4nc(OC[C@@]56CCCN5C[C@H](F)C6)nc(N5CCC[C@@](C)(O)C5)c4c4cn(C)nc34)c12 [Example 95, (3R)-1-[4-(8-ethyl-7-fluoro-3-hydroxy-1-naphthyl)-2,5-dimethyl-7-[[(2R,8S)-2-fluoro-1,2,3,5,6,7-hexahydropyrrolizin-8-yl]methoxy]pyrazolo[4,3-f]quinazolin-9-yl]-3-methyl-piperidin-3-ol] | – | – | ≤ 10 | ≤ 10
CCc1c(F)ccc2cc(O)cc(-c3c(C)c4nc(OC[C@@]56CCCN5C[C@H](F)C6)nc(N5CC6CCC(C5)N6)c4c4cn(C)nc34)c12 [Example 96, tert-butyl 3-[4-bromo-7-[[(2R,8S)-2-fluoro-1,2,3,5,6,7-hexahydropyrrolizin-8-yl]methoxy]-2,5-dimethyl-pyrazolo[4,3-f]quinazolin-9-yl]-3,8-diazabicyclo[3.2.1]octane-8-carboxylate] | – | – | ≤ 10 | ≤ 10
C#Cc1c(F)ccc2cc(O)cc(-c3c(C)c4nc(OC[C@@]56CCCN5C[C@H](F)C6)nc(N5CCCn6nc(C(=O)N(C)C)cc6C5)c4c4cn(C)nc34)c12 [Example 97, 5-[4-(8-ethynyl-7-fluoro-3-hydroxy-1-naphthyl)-2,5-dimethyl-7-[[(2R,8S)-2-fluoro-1,2,3,5,6,7-hexahydropyrrolizin-8-yl]methoxy]pyrazolo[4,3-f]quinazolin-9-yl]-N,N-dimethyl-4,6,7,8-tetrahydropyrazolo[1,5-a][1,4]diazepine-2-carboxamide] | – | – | ≤ 10 | ≤ 10
C=Cc1c(F)ccc2cc(O)cc(-c3c(C)c4nc(OC[C@@]56CCCN5C[C@H](F)C6)nc(N5CCCn6nc(C(=O)N(C)C)cc6C5)c4c4cn(C)nc34)c12 [Example 98, 5-[4-(7-fluoro-3-hydroxy-8-vinyl-1-naphthyl)-2,5-dimethyl-7-[[(2R,8S)-2-fluoro-1,2,3,5,6,7-hexahydropyrrolizin-8-yl]methoxy]pyrazolo[4,3-f]quinazolin-9-yl]-N,N-dimethyl-4,6,7,8-tetrahydropyrazolo[1,5-a][1,4]diazepine-2-carboxamide] | – | – | ≤ 10 | ≤ 10
CCc1c(F)ccc2cc(O)cc(-c3c(F)c4nc(OC[C@@]56CCCN5C[C@H](F)C6)nc(N5CC6CCC(C5)N6)c4c4cn(C)nc34)c12 [Example 99, 4-[9-(3,8-diazabicyclo[3.2.1]octan-3-yl)-5-fluoro-2-methyl-7-[[(2R,8S)-2-fluoro-1,2,3,5,6,7-hexahydropyrrolizin-8-yl]methoxy]pyrazolo[4,3-f]quinazolin-4-yl]-5-ethyl-6-fluoro-naphthalen-2-ol] | – | – | ≤ 10 | ≤ 10
CCc1c(F)ccc2cc(O)cc(-c3c(F)c4nc(OC[C@@]56CCCN5C[C@H](F)C6)nc(N5CCCC(C)(O)C5)c4c4cn(C)nc34)c12 (stereo partly drawn) [Example 100, (3R)-1-[4-bromo-5-fluoro-2-methyl-7-[[(2R,8S)-2-fluoro-1,2,3,5,6,7-hexahydropyrrolizin-8-yl]methoxy]pyrazolo[4,3-f]quinazolin-9-yl]-3-methyl-piperidin-3-ol] | – | – | ≤ 10 | ≤ 10
Cc1c(-c2ccc(F)c3sc(N)c(C#N)c23)c2nn(C)cc2c2c(N3CCCn4nc(C(=O)N(C)C)cc4C3)nc(OC[C@@]34CCCN3C[C@H](F)C4)nc12 [Example 101, 5-[4-(2-amino-3-cyano-7-fluoro-benzothiophen-4-yl)-7-[[(2R,8S)-2-fluoro-1,2,3,5,6,7-hexahydropyrrolizin-8-yl]methoxy]-2,5-dimethyl-pyrazolo[4,3-f]quinazolin-9-yl]-N,N-dimethyl-4,6,7,8-tetrahydropyrazolo[1,5-a][1,4]diazepine-2-carboxamide] | – | – | ≤ 10 | ≤ 10
